How the values were obtained:
[1] = system: cultured cumulus enclosed and naked mouse oocytes; settings: cited from earlier work
[2] = system: denuded oocytes (DO); experiment: Oocyte assay, agonistic testing, denuded oocytes (DO assay); format: cell-based, mice (B6D2-F1, strain C57BL×DBA); settings: hypoxanthine medium, 22 hours culture, control value in brackets
Text: (§1) Oocytes arrested in meiosis contain diffused chromosomes which are surrounded by an intact nuclear envelope known as the germinal vesicle (GV). Upon reinitiation of meiosis by the midcycle gonadotropin surge, the chromosomes recondense and the GV breaks down (GVBD). In vivo, the oocyte is exposed to hypoxanthine (HX), which maintains the oocyte arrested in the meiotic prophase. This meiotic arrest can be mimicked in vitro by addition of hypoxanthine to the culture medium. The agonistic activity of meiosis activating substances is measured as the ability to overcome the hypoxanthine maintained meiotic arrest in denuded oocytes (DO) or cumulus enclosed oocytes (CEO), i.e. as the ability to induce meiotic resumption in vitro.
(§2) Ovaries are obtained from immature female mice (B6D2-F1, strain C57BL×DBA). At the age of 19, 20 or 21 days the mice are injected subcutaneously with a single dose of 20 IU follicle stimulating hormone (Humegon, Organon, The Netherlands) in saline.
Forty-eight hours after follicle stimulating hormone injection mice are killed by cervical dislocation. The ovaries are removed, freed of extraneous tissue and placed in a multidish containing 0.5 ml preparation medium at 37° C. L-15 Leibovitz medium (Gibco, pH 7.3±0.1) supplemented with bovine serum albumin (3 mg·ml^−1), L-glutamine (0.23 mM), sodium pyruvate (2 mM) and hypoxanthine (4 mM) is used as preparation medium. The antral follicles of the ovaries are punctured under a dissecting microscope using two 27-gauge needles attached to two 1 ml syringes. Cumulus enclosed oocytes (CEO) of uniform size are selected with a mouth-controlled pipette and rinsed in 0.5 ml fresh preparation medium. About 20 CEO are obtained from one ovary.
Oocytes freed from cumulus cells, i.e. denuded oocytes (DO), are obtained by gently flushing CEO through a fine-bore mouth-controlled pipette. DO were collected in fresh MEM alpha medium, containing bovine serum albumin (3 mg·ml^−1), L-glutamine (0.23 mM), sodium pyruvate (2 mM) and hypoxanthine (4 mM), and washed twice before transfer to the test medium.
(§3) The oocyte assay is performed in 3 blocks, each block represents the ovaries of one mouse (randomized block design). […] At t=0 the number of oocytes with intact germinal vesicles (GV) or germinal vesicle break-down (GVBD) is counted under an inverted microscope with differential interference contrast equipment. […] At the end of the culture period the number of oocytes with GV or GVBD per group is counted. For statistical analysis the percentage germinal vesicle breakdown is calculated for each group in one block. These percentages are subjected to arcsin transformation, and differences between control and test compounds are analyzed by an ANOVA test for a randomized block design. […]

[3] = system: cumulus enclosed oocytes (CEO); experiment: Oocyte assay, agonistic testing, cumulus enclosed oocytes (CEO assay); format: cell-based, mice (B6D2-F1, strain C57BL×DBA); settings: hypoxanthine medium, 22 hours culture, control value in brackets
Text: as §1, §2
Forty-eight hours after follicle stimulating hormone injection mice are killed by cervical dislocation. The ovaries are removed, freed of extraneous tissue and placed in a multidish containing 0.5 ml preparation medium at 37° C. L-15 Leibovitz medium (Gibco, pH 7.3±0.1) supplemented with bovine serum albumin (3 mg·ml^−1), L-glutamine (0.23 mM), sodium pyruvate (2 mM) and hypoxanthine (4 mM) is used as preparation medium. […]
as §3

Structure (SMILES)	activation of the resumption of meiosis [1]	% GVBD DO assay exp. ([2]; compound 5 μM)	% GVBD CEO assay exp. ([3]; compound 5 μM)	% GVBD DO assay exp. ([2]; compound 10 μM)	% GVBD CEO assay exp. ([3]; compound 10 μM)
CC(C)=CCC[C@@H](C)[C@H]1CC[C@H]2C3=C(CC[C@]12C)[C@@]1(C)CC[C@H](O)C(C)(C)[C@@H]1CC3 [(3β,5α,20R)-4,4-dimethylcholesta-8,24-dien-3-ol]	able to activate the resumption of meiosis				
CC(C)=CC[C@H](O)[C@@H](C)[C@H]1CC=C2C3=C(CC[C@@]21C)[C@@]1(C)CC[C@H](O)C(C)(C)[C@@H]1CC3 [22S-hydroxy-FF-Mas, (3β,5α,20S,22S)-4,4-dimethylcholesta-8,14,24-triene-3,22-diol]		97(2) %	73(2) %		
CC(C)=CCC[C@@H](C)[C@H]1CC=C2C3=C(CC[C@@]21C)[C@@]1(C)CC[C@H](O)C(C)(C)[C@@H]1CC3 [FF-Mas, (3β,5α,20R)-4,4-dimethylcholesta-8,14,24-trien-3-ol]	able to activate the resumption of meiosis			84(7) %	0(0) %
